This passage reports solubility results from US8852634B2, “Dosage formulation” (Hoffmann-La Roche Inc., priority 2005, dated 2014).

Each structure is given as a SMILES string. Where two headings read alike, the source gives them in different places.

A short description of the series: Solubility of the crystalline compounds in aqueous media. The series is classed as physicochemical.

On to `Cc1ccccc1-c1cc(N2CCOCC2)ncc1N(C)C(=O)C(C)(C)c1cc(C(F)(F)F)cc(C(F)(F)F)c1` [2-(3,5-bis-trifluoromethyl-phenyl)-N-methyl-N-(6-morpholin-4-yl-4-o-tolyl-pyridin-3-yl)-isobutyramide], for which the solubility was under 0.1 µg/mL (aqueous buffer solutions of pH 3.0-7.0, read-out: solubility in aqueous buffer solutions) and under 0.1 µg/mL (water, 'above noted insolubilities', read-out: solubility in water).

As usually defined, the solubility is how much of the substance goes into solution per volume.
